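Step 1: Grow cells in 96-well plates. Step 2: Expose to compound for 48 hours at 5 concentrations. Step 3: Interpolate endpoints linearly; if unreached, use highest concentration. The concentration for 50% growth inhibition is given as GI50.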 Calls of active or inactive are those of the source. Rule as the data show it: active = GI50 up to about 1.1 µM and inactive = higher.
Columns and labels:
Experiment in all cases: inhibition of tumour cell growth, NCI panel, 48 h
HCC 2998 = test system: HCC 2998
OVCAR-8 = test system: OVCAR-8
NCI-H522 = test system: NCI-H522
SK-MEL-28 = test system: SK-MEL-28
HT-29 = test system: HT-29
HCT-116 = test system: HCT-116
A498 = test system: A498
U-251 = test system: U-251
HL-60 = test system: HL-60
SNB-75 = test system: SNB-75
OVCAR-5 = test system: OVCAR-5
ACHN = test system: ACHN
SF-295 = test system: SF-295
OVCAR-4 = test system: OVCAR-4
TK-10 = test system: TK-10
HOP-92 = test system: HOP-92

Row | Structure (SMILES) | GI50 (HCC 2998) | GI50 (OVCAR-8) | GI50 (NCI-H522) | GI50 (SK-MEL-28) | GI50 (HT-29) | GI50 (HCT-116) | GI50 (A498) | GI50 (U-251) | GI50 (HL-60) | GI50 (SNB-75) | GI50 (OVCAR-5) | GI50 (ACHN) | GI50 (SF-295) | GI50 (OVCAR-4) | GI50 (TK-10) | GI50 (HOP-92)
1 | CCOC(=O)C1=C(C)N(NC(=O)c2ccccc2)C2(O)CCCC12C(=O)OCC (stereo not given) | > 100 µM (inactive) | > 100 µM (inactive) | > 100 µM (inactive) | > 100 µM (inactive) | > 100 µM (inactive) | > 100 µM (inactive) | > 100 µM (inactive) | > 100 µM (inactive) | > 100 µM (inactive) | 40.1 µM (inactive) | > 100 µM (inactive) | > 100 µM (inactive) | > 100 µM (inactive) | > 100 µM (inactive) | – | –
2 | BrC1=CCC23CC=C(Br)[C@H]4CC2(COC3)C[C@@H]1O4 (stereo not given in full) | – | 63.8 µM (inactive) | 24.3 µM (inactive) | 22.6 µM (inactive) | > 10 µM (inactive) | 29.2 µM (inactive) | – | 79.3 µM (inactive) | 6.41 µM (inactive) | 20.1 µM (inactive) | 21.2 µM (inactive) | > 100 µM (inactive) | > 100 µM (inactive) | 27 µM (inactive) | 80.2 µM (inactive) | –
3 | COC(=O)/C=C1\CCC(C)O1 (stereo not given) | > 100 µM (inactive) | > 100 µM (inactive) | – | – | > 100 µM (inactive) | > 100 µM (inactive) | – | > 100 µM (inactive) | > 100 µM (inactive) | 39.5 µM (inactive) | > 100 µM (inactive) | > 100 µM (inactive) | > 100 µM (inactive) | > 100 µM (inactive) | > 100 µM (inactive) | 24 µM (inactive)
4 | COc1ccc(/C=N/C23CC4CC(CC(C4)C2)C3)cc1 | > 100 µM (inactive) | > 100 µM (inactive) | > 100 µM (inactive) | > 100 µM (inactive) | > 100 µM (inactive) | > 100 µM (inactive) | > 100 µM (inactive) | > 100 µM (inactive) | > 100 µM (inactive) | > 100 µM (inactive) | > 100 µM (inactive) | > 100 µM (inactive) | > 100 µM (inactive) | > 100 µM (inactive) | > 100 µM (inactive) | –
5 | Cn1cc(-c2ccc3c4ccccc4n(C)c3c2)c2ccccc21 | > 100 µM (inactive) | > 100 µM (inactive) | > 100 µM (inactive) | > 100 µM (inactive) | 89.9 µM (inactive) | > 100 µM (inactive) | > 100 µM (inactive) | > 100 µM (inactive) | 75 µM (inactive) | > 100 µM (inactive) | > 100 µM (inactive) | > 100 µM (inactive) | 94.4 µM (inactive) | > 100 µM (inactive) | > 100 µM (inactive) | –
6 | CCCCC#COS(=O)(=O)c1ccc(C)cc1 | > 100 µM (inactive) | > 100 µM (inactive) | 54.1 µM (inactive) | – | > 100 µM (inactive) | 82.8 µM (inactive) | > 100 µM (inactive) | 86.5 µM (inactive) | > 100 µM (inactive) | – | > 100 µM (inactive) | 71.1 µM (inactive) | > 100 µM (inactive) | 65.9 µM (inactive) | – | –
7 | COC(OC)c1cccc2c1C(=O)CCC1(O)c3ccccc3C1C2 (stereo not given) | > 100 µM (inactive) | > 100 µM (inactive) | > 100 µM (inactive) | > 100 µM (inactive) | > 100 µM (inactive) | 33.7 µM (inactive) | – | – | 35.2 µM (inactive) | > 100 µM (inactive) | > 100 µM (inactive) | – | 42.1 µM (inactive) | > 100 µM (inactive) | > 100 µM (inactive) | –
8 | O=c1c2cccnc2ncn1CCN1CCCC1 | > 100 µM (inactive) | > 100 µM (inactive) | > 100 µM (inactive) | > 100 µM (inactive) | > 100 µM (inactive) | > 100 µM (inactive) | – | > 100 µM (inactive) | – | > 100 µM (inactive) | > 100 µM (inactive) | > 100 µM (inactive) | > 100 µM (inactive) | > 100 µM (inactive) | > 100 µM (inactive) | > 100 µM (inactive)
9 | [N-]=[N+]=NC(c1cn(C2CC(O)C(CO)O2)c(=O)[nH]c1=O)C(Br)I (stereo not given) | > 100 µM (inactive) | > 100 µM (inactive) | > 100 µM (inactive) | > 100 µM (inactive) | > 100 µM (inactive) | > 100 µM (inactive) | – | > 100 µM (inactive) | > 100 µM (inactive) | > 100 µM (inactive) | > 100 µM (inactive) | > 100 µM (inactive) | > 100 µM (inactive) | – | > 100 µM (inactive) | > 100 µM (inactive)
10 | CCCCNC(=O)OCC(COc1ccccc1OC)OC(=O)NCCCC (stereo not given) | > 100 µM (inactive) | > 100 µM (inactive) | 45.4 µM (inactive) | > 100 µM (inactive) | > 100 µM (inactive) | > 100 µM (inactive) | > 100 µM (inactive) | > 100 µM (inactive) | > 100 µM (inactive) | 96.6 µM (inactive) | – | > 100 µM (inactive) | > 100 µM (inactive) | > 100 µM (inactive) | > 100 µM (inactive) | –
11 | COc1ccc2c(C3(O)CCNCC3)c[nH]c2c1 | > 100 µM (inactive) | > 100 µM (inactive) | > 100 µM (inactive) | > 100 µM (inactive) | > 100 µM (inactive) | – | – | > 100 µM (inactive) | > 100 µM (inactive) | > 100 µM (inactive) | > 100 µM (inactive) | > 100 µM (inactive) | > 100 µM (inactive) | > 100 µM (inactive) | > 100 µM (inactive) | > 100 µM (inactive)
12 | CCOC(=O)CSc1cc[nH]c(=O)n1 | – | > 100 µM (inactive) | > 100 µM (inactive) | – | > 100 µM (inactive) | > 100 µM (inactive) | > 100 µM (inactive) | > 100 µM (inactive) | > 100 µM (inactive) | > 100 µM (inactive) | > 100 µM (inactive) | > 100 µM (inactive) | > 100 µM (inactive) | – | > 100 µM (inactive) | –
13 | CC(C)C.C[N+](C)(C)C.OC(c1ccccc1)(C(F)(F)F)C(F)(F)F.OC(c1ccccc1)(C(F)(F)F)C(F)(F)F.[SiH3-] | 3.56 µM (inactive) | 9.23 µM (inactive) | 6.01 µM (inactive) | 12.4 µM (inactive) | 3.64 µM (inactive) | 3.46 µM (inactive) | – | 2.07 µM (inactive) | – | 0.536 µM (active) | 2.28 µM (inactive) | 8.51 µM (inactive) | 3.42 µM (inactive) | 7.59 µM (inactive) | 12.6 µM (inactive) | < 0.01 µM (active)
14 | COc1ccc2c(=O)c(C)c(-c3ccccc3)oc2c1CN(C)C [DIMEFLINE] | > 100 µM (inactive) | > 100 µM (inactive) | > 100 µM (inactive) | – | – | > 100 µM (inactive) | > 100 µM (inactive) | – | – | – | 65.5 µM (inactive) | > 100 µM (inactive) | > 100 µM (inactive) | > 100 µM (inactive) | > 100 µM (inactive) | > 100 µM (inactive)
15 | C=C1C[C@]23C[C@@]1(O)CC[C@H]2[C@@]12C=C[C@H](O)[C@@](C)(C(=O)O1)[C@H]2[C@@H]3C(=O)O [GIBBERELLIN A3] | > 100 µM (inactive) | – | > 100 µM (inactive) | > 100 µM (inactive) | > 100 µM (inactive) | > 100 µM (inactive) | – | > 100 µM (inactive) | > 100 µM (inactive) | > 100 µM (inactive) | > 100 µM (inactive) | – | > 100 µM (inactive) | > 100 µM (inactive) | > 100 µM (inactive) | > 100 µM (inactive)

From ChEMBL document CHEMBL1201862, “PubChem BioAssay data set” (2004)
